Results on 2 compounds are retold here after US6469001B1, “IL-5 inhibiting 6-azauracil derivatives” (priority 1998, dated 2002).

This test has as its system IL-5 production in human blood. Description: in vitro inhibition of IL-5 production in human blood (whole blood stimulated with phytohemagglutinin, IL-5 by ELISA). As to conditions: test dose 1×10^−6 M, phytohemagglutinin HA17 stimulation, 48 hours, read-out: % inh. (percentage inhibition of IL-5 production). The test is classed as cell-based. As to the method: in vitro Inhibition of IL-5 Production in Human Blood
Human Whole Blood Stimulation
Peripheral blood from healthy male donors was drawn into heparinized syringes (12.5 U heparin/ml). Blood samples were three-fold diluted in RMPI 1640 medium (Life Technologies, Belgium) supplemented with 2 mM L-glutamine, 100 U/ml penicillin and […] streptomycin, and […] fractions were distributed in 24-well multidisc plates. Blood samples were preincubated (60 minutes at 37° C.) in a humidified 6% CO2-atmosphere with 100 ml of drug solvent (final concentration 0.02% dimethylsulfoxide in RPMI 1640) or with 100 ml of an appropriate dose of test compound before being stimulated by the addition of […] of phytohemagglutinin HA17 (Murex, UK) at a final concentration of […]. After 48 hours, cell-free supernatant fluids were collected by centrifugation and stored at −70° C. until tested for the presence of IL-5.
IL-5 measurements were conducted as described in Van Wauwe et al. (1996, Inflamm Res, 45, 357-363) on page 358 using ELISA.
Table 1 lists the percentage inhibition of IL-5 production (column “% inh”) at a test dose of 1×10^−6 M for the compounds of the present invention.

Broadly, the inhibition is the drop in the measured response relative to a control, in per cent. In the case of `CS(=O)(=O)c1ccc(C2(C(N)=S)CCc3cc(-n4ncc(=O)[nH]c4=O)ccc32)cc1` (centres unmarked) [Compound 6], the inhibition at 1 µM was 6%.
The result for `Cc1sc(C2(c3ccc(S(C)(=O)=O)cc3)CCc3cc(-n4ncc(=O)[nH]c4=O)ccc32)nc1-c1ccccc1` (centres unmarked) [Compound 7] reads 39%.
